Experimental data published in patent US20230331707A1, “PROGRAMMED CELL NECROSIS INHIBITOR, PREPARATION METHOD THEREFOR, AND USE THEREOF” (Shanghai Institute of Organic Chemistry, Chinese Academy of …, priority 2020, published 2023).
Read-outs that look alike come from different tables or passages of the source.

Columns and labels:
L929 cells = test: Inhibition of TNF-induced programmed necrosis of L929 cells (Cell Titer-Glo viability); type: cell-based, mouse
From the text: (§1) The adopted biological assay protocol was: the effect of compounds on programmed necroptosis of TNF-induced FADD (Fas-Associated Death Domain) deficient Jurkat cells and L929 cells.
(§2) In order to verify the inhibitory effect of the compounds of the present invention on programmed cell necrosis at the cellular level, cell types that is closely related to the RIP1 pathway, namely FADD deficient Jurkat cells (human peripheral blood leukemia T cell strain) and L929 cells, were selected. Two different stimulation methods were used: tumor necrosis factor (TNFα) was used alone, or TNFα was used in combination with mitochondria-derived cysteine aspartate activator (SMAC) SM164. Cells viability was calculated by detecting chemiluminescence values, thereby obtaining the biological activity of the compound on the inhibition of programmed cell necrosis.
(§3) Methods: FADD deficient Jurkat cells: FADD deficient Jurkat cells (human peripheral blood leukemia T cell line) were cultured in vitro. After growing to the logarithmic growth phase, the cells were collected, centrifuged at 1000 rpm for 5 min, the supernatant was discarded, and the cell concentration was adjusted to 2.5×10^5/mL. Cells were seeded into 384-well plates, 40 μl per well. 5 μL of SM164 (50 nM) diluted in cell culture medium and 5 μL of each compound were added to the corresponding wells. After pretreatment at 37° C. for 1 h, 5 μL of TNFα (50 ng/mL) diluted in cell culture medium was added to each well of the stimulation group, and 5 μL of the culture medium was added to the control group. The plate was cultured in a cell incubator (37° C., 5% CO2) for 14 h, and […] of Cell Titer-Glo solution was added to each well, then incubated for 30 min at room temperature, and intracellular ATP level was measured by detecting luminescence. The unstimulated DMSO control wells were taken as 100% cell viability. L929 cells: The L929 cells (mouse fibroblasts) were cultured in vitro, digested and diluted to 6.25×10^4/ml, and the cells were seeded into 384-well plates, 40 μl per well. The plate was placed in a cell incubator (37° C., 5% CO2) for 12 hours. 5 μL of SM164 (500 nM) diluted in cell culture medium and 5 μL of each compound were added to the corresponding wells. After pretreatment at 37° C. for 1 h, 5 μL of TNFα (500 ng/mL) diluted in cell culture medium was added to each well of the stimulation group, and 5 μL of the culture medium was added to the control group. After the plate was cultured for 14 h in a cell incubator (37° C., 5% CO2), 15 μl of Cell Titer-Glo solution was added to each well. The plate was incubated at room temperature for 30 min, and intracellular ATP level was measured by detecting luminescence. The unstimulated DMSO control wells were taken as 100% cell viability. EC50 values of the compounds were calculated using Prism Graphpad statistical software.

[1] = Liver microsomal stability test, mouse; type: in vitro ADME; details: mouse, liver microsomes, mouse liver microsomes, NADPH, 37° C.; read-out: T1/2 (min) Mouse
From the text: (§4) The adopted biological test protocol was: testing the half-life of the compound in human- or mouse-derived liver microsomes.
(§5) Liver microsomes contain many enzymes involved in drug metabolism, especially cytochrome P-450, and therefore it is one of the major tissues involved in drug metabolism in living organisms. There are some correlations between the stability of the compound in liver microsomes and the pharmacogenetic stability thereof in vivo. Therefore, the relative stability of compounds in vivo can be roughly predicted by testing the half-life of different compounds in human- or mouse-derived liver microsomes. The specific methods were as follows:
(§6) Methods: 0.75 μL of 0.5 mM samples (compounds to be tested and control verapamil), 9.38 μL of 20 mg/mL liver microsomes (Human and Mouse) were taken and added to 239.88 μL PBS (on ice), and divided into 30 μL/tube samples respectively. The samples were incubated at 37° C. in a constant temperature water bath for 5 min, and then all samples were taken out. At zero-time, control group was added with 90 μL of ice acetonitrile first, and then added with 15 μL of 3 mM NADPH solution sequentially, and incubated at 37° C. in a constant temperature water bath. The corresponding samples were taken out after 5 min, 10 min, 20 min, 30 min and 60 min, respectively, and quenched by adding 90 μL of ice acetonitrile. All samples were centrifuged at 10000 rpm for 10 min, and the supernatants were taken and placed in a liquid phase vial waiting for LC-MS analysis.

FADD−/− Jurkat cells = test: Inhibition of TNF-induced programmed necrosis of FADD deficient Jurkat cells (Cell Titer-Glo viability); type: cell-based; details: for EC50: FADD−/− Jurkat cells
From the text: as §1, §2, §3

[2] = Liver microsomal stability test, human; type: in vitro ADME; details: human, liver microsomes, human liver microsomes, NADPH, 37° C.; read-out: T1/2 (min) Human
From the text: as §4, §5, §6

[3] = Mus musculus, L929, L929 cells, stimulated with TNFα + SM164, read-out: EC50 (μM) L929 cells (mouse) TNFα + SM164
[4] = Mus musculus, L929, L929 cells, stimulated with TNFα alone, read-out: EC50 (μM) L929 cells (mouse) TNFα
[5] = Homo sapiens, Jurkat, 14 h, stimulated with TNFα + SM164, read-out: EC50 (μM) FADD−/− Jurkat cells (human) TNFα + SM164
[6] = Homo sapiens, Jurkat, stimulated with TNFα alone, read-out: EC50 (μM) FADD−/− Jurkat cells (human) TNFα

Row | SMILES | EC50 (L929 cells; [3]) [nM] | EC50 (L929 cells; [4]) [nM] | half-life at 1 µM [1] [min] | EC50 (FADD−/− Jurkat cells; [5]) [nM] | EC50 (FADD−/− Jurkat cells; [6]) [nM] | half-life at 1 µM [2] [min] | EC50 (L929 cells; L929 cells, stimulated with TNFα + SM164, read-out: EC50 (μM) L929 cells (mouse) TNFα + SM164) [nM] | EC50 (L929 cells; L929 cells, stimulated with TNFα alone, read-out: EC50 (μM) L929 cells (mouse) TNFα) [nM] | EC50 (FADD−/− Jurkat cells; stimulated with TNFα + SM164, read-out: EC50 (μM) FADD−/− Jurkat cells (human) TNFα + SM164) [nM] | EC50 (FADD−/− Jurkat cells; stimulated with TNFα alone, read-out: EC50 (μM) FADD−/− Jurkat cells (human) TNFα) [nM] | activity of inhibition of programmed necrosis compared with GSK2982772 (FADD−/− Jurkat cells; human FADD-deficient Jurkat cells, TNFα alone or in combination with SM164)
1 | Cn1ncc(C(=O)NCc2ccc(-n3ccc4c(N)ncnc43)cc2)c1Cc1ccccc1 [QY-10-39, N-(4-(4-amino-7H-pyrrolo[2,3-d]pyrimidine-7-yl)benzyl)-5-benzyl-1-methyl-1H-pyrazole-4-carboxamide] | 96.1 | 10 | 25.7 | 2.95 | 0.07 |  |  |  |  |  | 
2 | Cn1ncc(C(=O)NCc2ccc(-n3cnc4cc(C(=O)NCCN5CCOCC5)ccc43)cc2)c1Cc1ccccc1 [QY-11-68B] | 83.4 | 20.5 | 34.7 | 2.96 | 0.696 |  |  |  |  |  | 
3 | CN(C)CCNC(=O)c1ccc2ncn(-c3ccc(CNC(=O)c4cnn(C)c4Cc4ccccc4)cc3)c2c1 [QY-11-74A] | > 10000 | > 10000 |  | 368 | 53 |  |  |  |  |  | 
4 | CCCn1nc(C(=O)NCc2ccc(-n3cnc4cc(C(=O)NC)ccc43)cc2)cc1Cc1ccccc1 [XHJ-4-48] | > 10000 | 3010 |  | 738 | 109 |  |  |  |  |  | 
5 | Cn1ncc(C(=O)NCc2ccc(-c3ccnc4[nH]ccc34)cc2)c1Cc1ccccc1 [QY-11-79] | > 10000 | > 10000 |  | 747 | 152 |  |  |  |  |  | 
6 | CN1CCN(CCNC(=O)c2ccc3ncn(-c4ccc(CNC(=O)c5cnn(C)c5Cc5ccccc5)cc4)c3c2)CC1 [QY-11-69A] | > 10000 | > 10000 |  | 194 | 3 |  |  |  |  |  | 
7 | CNC(=O)c1ccc2c(c1)ncn2-c1ccc(CNC(=O)c2cnn(C)c2Cc2ccccc2)cc1 [QY-10-73] | 76.7 | 20 |  | 5.2 | 0.0697 |  |  |  |  |  | 
8 | Cn1nc(C(=O)NCc2ccc(-n3ncc4c(N)ncnc43)cc2)cc1Cc1ccccc1 [ZSQ-15-48] | > 10000 | 6550 |  | 451 | 70.9 |  |  |  |  |  | 
9 | CN(C)CCNC(=O)c1ccc2c(c1)ncn2-c1ccc(CNC(=O)c2cnn(C)c2Cc2ccccc2)cc1 [QY-11-74B] | 0.687 | 0.386 |  | 3.73 | 0.293 |  |  |  |  |  | 
10 | CNC(=O)c1ccc2c(c1)ncn2-c1ccc(CNC(=O)c2nnc(Cc3ccccc3)o2)cc1 [QY-7-32, 5-Benzyl-N-(4-(5-(methylcarbamoyl)-1H-benzo[d]imidazol-1-yl)benzyl)-1,3,4-oxadiazol-2-carboxamide] | > 10000 | > 10000 |  | 1520 | 185 |  |  |  |  |  | 
11 | Cn1ncc(C(=O)NCc2ccc(-n3cnc4ccc(C(=O)NCCN5CCOCC5)cc43)cc2)c1Cc1ccccc1 [QY-11-68A] | 1.58 | 161 |  | 3.79 | 0.581 |  |  |  |  |  | 
12 | COc1cnc2c(c1)ncn2-c1ccc(CNC(=O)c2nnn(C)c2Cc2ccccc2)cc1 [ET-0934] | 558 | 16.6 |  | 15.5 | 0.489 |  |  |  |  |  | 
13 | Nc1ncnc2c1ncn2-c1ccc(CNC(=O)c2ccc(F)n2Cc2ccccc2)cc1 [ZSQ-21-30] | 7.41 | 0.916 |  | 1.6 | 0.0853 |  |  |  |  |  | 
14 | COc1ccc2ncn(-c3ccc(CNC(=O)c4cnn(C)c4Cc4ccccc4)cc3)c2c1 [QY-11-102B] | 0.424 | 0.0278 |  | 0.306 | 0.0133 |  |  |  |  |  | 
15 | Nc1ncnc2c1ccn2-c1ccc(CNC(=O)c2nnn(Cc3ccccc3)n2)cc1 [QY-8-58, N-(4-(4-amino-7H-pyrrolo[2,3-d]pyrimidin-7-yl)benzyl)-2-benzyl-2H-tetrazol-5-carboxamide] | > 10000 | > 10000 |  | 577 | 196 |  |  |  |  |  | 
16 | Nc1ncnc2c1ncn2-c1ccc(CNC(=O)c2cn(Cc3ccccc3)cn2)cc1 [ZSQ-21-13] |  |  | 99 | 39 | 42.7 | 577 |  |  |  |  | 
17 | Nc1ncnc2c1ccn2-c1ccc(CNC(=O)Cc2cccc(OC(F)(F)F)c2)cc1 [QY-9-69, O—N-(4-(4-amino-7H-pyrrolo[2,3-d]pyrimidine-7-yl)benzyl)-2-(3-(trifluoromethoxy)phenyl)acetamide] | > 10000 | 567 |  | > 10000 | > 10000 |  |  |  |  |  | 
18 | CNC(=O)c1ccc2c(c1)ncn2-c1ccc(CNC(=O)c2ccc(F)n2Cc2ccccc2)cc1 [QY-12-47] | 34.4 | 6 |  | 17.4 | 1.74 |  |  |  |  |  | 
19 | COc1cc2ncnc(-c3ccc(CNC(=O)c4cnn(C)c4Cc4ccccc4)cc3)c2cc1OC [QY-11-75] | > 10000 | > 10000 |  | 1500 | 233 |  |  |  |  |  | 
20 | CNC(=O)c1ccc2c(c1)ncn2-c1ccc(CNC(=O)c2cn(Cc3ccccc3)nn2)cc1 [ZSQ-13-35] | > 10000 | > 10000 |  | 1590 | 233 |  |  |  |  |  | 
21 | Nc1ncnc2c1ccn2-c1ccc(CNC(=O)c2ncc(Cc3ccccc3)o2)cc1 [QY-8-30, N-(4-(4-amino-7H-pyrrolo[2,3-d]pyrimidine-7-yl)benzyl)-5-benzyloxazol-2-carboxamide] | 6300 | 829 |  | 13 | 11.2 |  |  |  |  |  | 
22 | Nc1ncnc2c1ncn2-c1ccc(CNC(=O)c2ccc(Cl)n2Cc2ccccc2)cc1 [ZSQ-21-18] |  |  | 30.1 | 80.6 | 6.57 | 8.6 |  |  |  |  | 
23 | Cn1nc(C(=O)NCc2ccc(-n3cnc4c(N)ncnc43)cc2)cc1Cc1ccccc1 [QY-8-31] |  |  |  |  |  |  | > 10000 | > 10000 | 7400 | 1300 | 
24 | C[C@H](NC(=O)c1cnn(C)c1Cc1ccccc1)c1ccc(-n2cnc3c(N)ncnc32)cc1 [QY-13-31] | 0.553 | 0.437 |  | 0.305 | 0.084 |  |  |  |  |  | stronger activity
25 | Cn1nc(C(=O)NCc2ccc(-n3ccc4c(N)ncnc43)cc2)cc1Cc1ccccc1 [QY-10-21, N-(4-(4-amino-7H-pyrrolo[2,3-d]pyrimidin-7-yl)benzyl)-5-benzyl-1-methyl-1H-pyrazol-3-carboxamide] | > 10000 | > 10000 |  | 299 | 49 |  |  |  |  |  | 
26 | C[C@@H](NC(=O)c1cnn(C)c1Cc1ccccc1)c1ccc(-n2cnc3c(N)ncnc32)cc1 [QY-12-97] | 219 | 51.9 |  | 132 | 36.1 |  |  |  |  |  | 
